This note sets out measurements from patent US20240060989A1, “METHODS FOR MEASURING CRALBP ACTIVITY” (NOVARTIS AG, priority 2019, published 2024).

For this assay, the target named is T1, human CRALBP protein (Homo sapiens, UniProt P12271).
T1 construct: purchased GeneTex GTX109228-pro
Put plainly: CRALBP binding assay, Biacore surface plasmon resonance (proteinA/G capture). The following applies: for Ka: 1:1 binding model, Biacore T200. Here is the method: Binding of 11-cis-retinol to human CRALBP protein was assessed for affinity determinations using Biacore. Kinetic rate constants was performed via surface plasmon resonance (SPR) using the Biacore T200 instrument (Cytiva, formerly GE Healthcare Lifesciences) as described below. The proteinA/G capture method was utilized in order to determine kinetics for 11-cis-retinol.
Recombinant proteinA/G (PIERCE, Cat #21186) was immobilized on the chip surface by using amino-coupling procedure according to the supplier's instruction (Cytiva, BR-1000-50). This immobilized proteinA/G captured commercial anti-CRALBP mouse IgG (Sigma, WH0006017M1, lot #11319-1H7), which then captured human CARLBP protein (GeneTex, GTX109228-pro, lot #42226) on chip surface. The 11-cis-retinol (Biosynth Carbosynth, FR163659) flowed over as analyte.
The 11-cis-retinol concentration started at […] and was serially diluted at one part to one part for five levels of concentration. Regeneration was performed at the end of each cycle using Glycine-HCl pH2.0 (Cytiva, BR-1003-55). The sample dilution step and Biacore experiment were performed either under ambient light or dark condition in which the Biacore sample compartment door was covered by aluminum foil.
Double reference subtraction was completed to generate final data. Kinetic rate constants was obtained by applying 1:1 binding model with Biacore T200 evaluation 3.0 software, wherein the Rmax values were fit locally. Binding was assess under dark and ambient light conditions.
(In SPR one partner is held on a chip, and binding of the other changes the refractive index at the surface.)

T1 sequence (P12271 whole entry): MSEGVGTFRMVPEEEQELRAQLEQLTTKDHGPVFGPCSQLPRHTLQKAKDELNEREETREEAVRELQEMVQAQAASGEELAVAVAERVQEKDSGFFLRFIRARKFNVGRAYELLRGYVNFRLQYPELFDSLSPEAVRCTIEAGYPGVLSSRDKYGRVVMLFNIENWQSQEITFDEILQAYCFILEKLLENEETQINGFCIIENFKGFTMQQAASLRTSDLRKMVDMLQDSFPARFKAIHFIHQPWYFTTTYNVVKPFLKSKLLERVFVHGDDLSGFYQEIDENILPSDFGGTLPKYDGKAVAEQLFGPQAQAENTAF

For the compound `CC1=C(/C=C/C(C)=C/C=C\C(C)=C\CO)C(C)(C)CCC1` [11-cis-retinol], the “binding to human CRALBP” value reads like this: (ambient light (FIG. 2A)) “able to bind”; (dark (FIG. 2B)) “able to bind”. Moreover, the Ka is, setting by setting: (ambient light) 12.69 M⁻¹ s⁻¹; (dark) 21.03 M⁻¹ s⁻¹.
